Test results reported in patent US6664214B1, “Uracil compounds and use thereof” (Sumitomo Chemical Company, Limited, priority 1999, dated 2003).

Key:
[1] = test system: ivyleaf morningglory; assay: Test Example 4: soil surface treatment on upland field (Table 5); type: in vivo, Ipomoea hederacea; set-up: key: 0: little difference in the degree of germination or growth between the treated plants and the untreated plants at the time of examination; 10: the treated plants died completely or their germination or growth was completely inhibited; details: 500 g/ha active ingredient, examined 12 days after application, index 0-10
Description: (§1) In the examples, the compounds are identified by the Compound Numbers as in Tables 1 to 3. […] A cylindrical plastic pot having a diameter of 10 cm and a depth of 10 cm was filled with soil and seeded ivyleaf morningglory, velvetleaf and barnyardgrass. Then each of compounds listed below was formulated into an emulsifiable concentrate according to Formulation Example 2 and then diluted to the prescribed amount with water and dilution was uniformly sprayed over the surface of the soil with sprayer at the rate of 1000 liters per hectare. After the application, the test plants were grown in a greenhouse for 12 days, and the herbicidal activity was examined.

[2] = test system: barnyardgrass; assay: Test Example 3: foliar treatment on upland field (Table 4); type: in vivo, Echinochloa crus-galli; set-up: key: 0: little difference in the degree of germination or growth between the treated plants and the untreated plants at the time of examination; 10: the treated plants died completely or their germination or growth was completely inhibited; details: examined 16 days after application, index 0-10
Protocol: (§2) In the examples, the compounds are identified by the Compound Numbers as in Tables 1 to 3. […] A cylindrical plastic pot having a diameter of 10 cm and a depth of 10 cm was filled with soil and seeded with ivyleaf momingglory, velvetleaf and barnyardgrass. These test plants were grown in a greenhouse for 10 days. Then each of compounds listed below was formulated into an emulsifiable concentrate according to Formulation Example 2 and then diluted to the prescribed amount with water containing a spreading agent and the dilution was uniformly sprayed over the foliage of the test plants with sprayer at a rate of 1000 liters per hectare. After the application, the test plants were grown in the greenhouse for 16 days, and the herbicidal activity were determined.

[3] = test system: large crabgrass; assay: Test Example 5: foliar treatment on upland field (Table 6); type: in vivo, Digitaria sanguinalis; set-up: key: 0: little difference in the degree of germination or growth between the treated plants and the untreated plants at the time of examination; 10: the treated plants died completely or their germination or growth was completely inhibited; details: 125 g/ha, 19 days after application, index 0 to 10
Protocol: In the examples, the compounds are identified by the Compound Numbers as in Tables 1 to 3. […] A pot for plug seedlings seeded with large crabgrass. The test plant was grown in a greenhouse for 14 days, then transplanted into a plastic pot having an area of 17×12 cm^2 and a depth of 7 cm, and further the test plants were grown in the greenhouse for 8 days. Then each of compounds listed below was formulated into an emulsifiable concentrate according to Formulation Example 2 and then diluted to the prescribed amount with water containing a spreading agent and the dilution was uniformly sprayed over the foliage of the test plants with sprayer at a rate of 1000 liters per hectare. After the application, the test plants were grown in the greenhouse for 19 days, and the herbicidal activity were determined.

[4] = test system: velvetleaf; assay: Test Example 3: foliar treatment on upland field (Table 4); type: in vivo, Abutilon theophrasti; set-up: key: 0: little difference in the degree of germination or growth between the treated plants and the untreated plants at the time of examination; 10: the treated plants died completely or their germination or growth was completely inhibited; details: examined 16 days after application, index 0-10
Protocol: as §2

[5] = test system: ivyleaf morningglory; assay: Test Example 1: foliar treatment on upland field; type: in vivo, Ipomoea hederacea; details: 125 g/ha, 8 days after application
Protocol: (§3) In the examples, the compounds are identified by the Compound Numbers as in Tables 1 to 3.
(§4) A cylindrical plastic pot having a diameter of 10 cm and a depth of 10 cm was filled with soil and seeded with ivyleaf momingglory, velvetleaf and bamyardgrass. These test plants were grown in a greenhouse for 9 days. Then each of compounds 1-1, 2-1, 2-2, 3-1 and 3-101 was formulated into an emulsifiable concentrate according to Formulation Example 2 and then diluted to the prescribed amount with water containing a spreading agent and the dilution was uniformly sprayed over the foliage of the test plants with sprayer at a rate of 1000 liters per hectare. After the application, the test plants were grown in the greenhouse for 8 days, and the herbicidal activity were determined.

[6] = test system: velvetleaf; assay: Test Example 4: soil surface treatment on upland field (Table 5); type: in vivo, Abutilon theophrasti; set-up: key: 0: little difference in the degree of germination or growth between the treated plants and the untreated plants at the time of examination; 10: the treated plants died completely or their germination or growth was completely inhibited; details: 500 g/ha active ingredient, examined 12 days after application, index 0-10
Description: as §1

[7] = test system: ivyleaf morningglory; assay: Test Example 3: foliar treatment on upland field (Table 4); type: in vivo, Ipomoea hederacea; set-up: key: 0: little difference in the degree of germination or growth between the treated plants and the untreated plants at the time of examination; 10: the treated plants died completely or their germination or growth was completely inhibited; details: examined 16 days after application, index 0-10
Protocol: as §2

[8] = test system: velvetleaf; assay: Test Example 2: soil surface treatment on upland field; type: in vivo, Abutilon theophrasti; details: 500 g/ha, 12 days after application
Description: as §1, with “seeded with velvetleaf.” for “seeded ivyleaf morningglory, velvetleaf and barnyardgrass.”, “compounds 1-1, 2-1, 2-2, 3-1 and 3-101” for “compounds listed below”, “at a” for “at the”

[9] = test system: velvetleaf; assay: Test Example 1: foliar treatment on upland field; type: in vivo, Abutilon theophrasti; details: 125 g/ha, 8 days after application
Protocol: as §3, §4

[10] = test system: barnyardgrass; assay: Test Example 4: soil surface treatment on upland field (Table 5); type: in vivo, Echinochloa crus-galli; set-up: key: 0: little difference in the degree of germination or growth between the treated plants and the untreated plants at the time of examination; 10: the treated plants died completely or their germination or growth was completely inhibited; details: 500 g/ha active ingredient, examined 12 days after application, index 0-10
Description: as §1

[11] = test system: barnyardgrass; assay: Test Example 1: foliar treatment on upland field; type: in vivo, Echinochloa crus-galli; details: 125 g/ha, 8 days after application
Protocol: as §3, §4

Row | Compound | Herbicidal effect Ivyleaf morningglory [1] | Herbicidal effect Barnyardgrass ([2]; 125 g/ha active ingredient) | Herbicidal effect Large crabgrass [3] | Herbicidal effect Velvetleaf ([4]; 125 g/ha active ingredient) | growth of ivyleaf morningglory [5] | Herbicidal effect Velvetleaf [6] | Herbicidal effect Ivyleaf morningglory ([7]; 125 g/ha active ingredient) | germination of velvetleaf [8] | growth of velvetleaf [9] | Herbicidal effect Barnyardgrass [10] | growth of barnyardgrass [11] | Herbicidal effect Barnyardgrass ([2]; 32 g/ha active ingredient) | Herbicidal effect Velvetleaf ([4]; 32 g/ha active ingredient) | Herbicidal effect Ivyleaf morningglory ([7]; 32 g/ha active ingredient)
1 | CCOC(=O)C(C)Oc1cccc(COc2cc(-n3c(=O)cc(C(F)(F)F)n(C)c3=O)c(F)cc2Cl)c1 (centres unmarked) [Compound 2-2, Ethyl 2-[3-({2-chloro-4-fluoro-5-[3-methyl-2,6-dioxo-4-(trifluoromethyl)-1,2,3,6-tetrahydropyrimidine-1-yl]phenoxy}methyl)phenoxy]propionate] | 10 | 10 | 10 | 10 | completely controlled | 10 | 10 | completely controlled | completely controlled | 10 | completely controlled |  |  | 
2 | COC(=O)COc1cccc(COc2cc(-n3c(=O)cc(C(F)(F)F)n(C)c3=O)c(F)cc2Cl)c1 [Compound 2-11, Methyl 2-[3-({2-chloro-4-fluoro-5-[3-methyl-2,6-dioxo-4-(trifluoromethyl)-1,2,3,6-tetrahydropyrimidine-1-yl]phenoxy}methyl)phenoxy]acetate] | 10 | 8 | 10 | 10 |  | 10 | 10 |  |  | 9 |  |  |  | 
3 | COC(=O)C(C)Oc1cccc(C(C)Oc2cc(-n3c(=O)cc(C(F)(F)F)n(C)c3=O)c(F)cc2Cl)c1 (centres unmarked) [Compound 2-21, methyl 2-[3-(1-{2-chloro-4-fluoro-5-[3-methyl-2,6-dioxo-4-(trifluoromethyl)-1,2,3,6-tetrahydropyrimidine-1-yl]phenoxy}ethyl)phenoxy]propionate] | 10 |  | 10 |  |  | 10 |  |  |  | 10 |  | 10 | 10 | 10
4 | COC(=O)C(C)Oc1cc(COc2cc(-n3c(=O)cc(C(F)(F)F)n(C)c3=O)c(F)cc2Cl)ccc1Cl (centres unmarked) [Compound 2-41, Methyl 2-[2-chloro-5-({2-chloro-4-fluoro-5-[3-methyl-2,6-dioxo-4-(trifluoromethyl)-1,2,3,6-tetrahydropyrimidine-1-yl]phenoxy}methyl)phenoxy]propionate] | 10 | 10 | 10 | 10 |  | 10 | 10 |  |  | 10 |  |  |  | 
5 | COC(=O)C(C)Oc1cc(COc2cc(-n3c(=O)cc(C(F)(F)F)n(C)c3=O)c(F)cc2Cl)ccc1OC (centres unmarked) [Compound 2-61, Methyl 2-[5-({2-chloro-4-fluoro-5-[3-methyl-2,6-dioxo-4-(trifluoromethyl)-1,2,3,6-tetrahydropyrimidine-1-yl]phenoxy}methyl)-2-methoxyphenoxy]propionate] | 10 | 10 | 10 | 10 |  | 10 | 10 |  |  | 10 |  |  |  | 
6 | COC(=O)C(C)Oc1cc(COc2cc(-n3c(=O)cc(C(F)(F)F)n(C)c3=O)c(F)cc2Cl)ccc1C (centres unmarked) [Compound 2-101, Methyl 2-[5-({2-chloro-4-fluoro-5-[3-methyl-2,6-dioxo-4-(trifluoromethyl)-1,2,3,6-tetrahydropyrimidine-1-yl]phenoxy}methyl)-2-methylphenoxy]propionate] | 10 | 10 | 10 | 10 |  | 10 | 10 |  |  | 10 |  |  |  | 
7 | COC(=O)C(C)Oc1ccc(Cl)c(COc2cc(-n3c(=O)cc(C(F)(F)F)n(C)c3=O)c(F)cc2Cl)c1Cl (centres unmarked) [Compound 2-161, Methyl 2-[2,4-dichloro-3-({2-chloro-4-fluoro-5-[3-methyl-2,6-dioxo-4-(trifluoromethyl)-1,2,3,6-tetrahydropyrimidine-1-yl]phenoxy}methyl)phenoxy]propionate] | 6 | 10 | 10 | 10 |  | 10 | 10 |  |  | 5 |  |  |  | 
8 | COC(=O)C(C)Oc1ccc(Cl)c(COc2cc(-n3c(=O)cc(C(F)(F)F)n(C)c3=O)c(F)cc2Cl)c1 (centres unmarked) [Compound 2-187, Methyl 2-[4-chloro-3-({2-chloro-4-fluoro-5-[3-methyl −2,6-dioxo-4-(trifluoromethyl)-1,2,3,6-tetrahydropyrimidine-1-yl]phenoxy}methyl)phenoxy]propionate] | 10 | 10 | 10 | 10 |  | 10 | 10 |  |  | 9 |  |  |  | 
9 | COC(=O)C(C)Oc1ccccc1COc1cc(-n2c(=O)cc(C(F)(F)F)n(C)c2=O)c(F)cc1Cl (centres unmarked) [Compound 3-1, methyl 2-[2-({2-chloro-4-fluoro-5-[3-methyl-2,6-dioxo-4-(trifluoromethyl)-1,2,3,6-tetrahydropyrimidine-1-yl]phenoxy}methyl)phenoxy]propionate] |  |  |  |  | completely controlled |  |  | completely controlled | completely controlled |  | completely controlled |  |  | 
10 | CCc1ccc(COc2cc(-n3c(=O)cc(C(F)(F)F)n(C)c3=O)c(F)cc2Cl)c(OC(C)C(=O)OC)c1 (centres unmarked) [Compound 3-101, Methyl 2-[2-({2-chloro-4-fluoro-5-[3-methyl-2,6-dioxo-4-(trifluoromethyl)-1,2,3,6-tetrahydropyrimidine-1-yl]phenoxy}methyl)-5-ethylphenoxy]propionate] |  |  |  |  | completely controlled |  |  | completely controlled | completely controlled |  | completely controlled |  |  | 
